Source: US8642642B2, “Heterocyclic arylsulphones suitable for treating disorders that respond to modulation of the serotonin 5HT6 receptor” (Abbott Laboratories, priority 2006, dated 2014)

Experiments:
human 5-HT6 receptor = target: T1, human 5-HT6 receptor (Homo sapiens, UniProt P50406); assay: Human 5-HT6 receptor binding assay (3H-LSD displacement); conditions: membranes from HEK-293 cells, 2 nM 3H-LSD
T1 construct: expressed in transfected cells
Method: (§1) The substance to be tested was either dissolved in methanol/Chremophor® (BASF-AG) or in dimethyl sulfoxide and then diluted with water to the desired concentration.
The compounds were dissolved in a concentration of 10^−2 M or 10^−3 M in DMSO. Further dilutions were performed in incubation buffer.
The procedure for the binding assay was based on the method of Monsma et al. (1993) Mol Pharmacol 43: 320-327. The binding reaction was carried out in a total volume of 0.250 ml for 60 min at 37° C. Membranes from HEK-293 cells stably expressing the human 5-HT6 receptor were incubated with 2 nM ^3H-LSD in the presence or absence of various concentrations of test compound for 60 min at 37° C. Non-specific binding was defined with 100 μM Serotonin (5-HT). Assays were performed in duplicate. Bound and free radioligand was separated by filtration and bound radioactivity determined by liquid scintillation counting.
The specific ligand binding to the receptors was defined as the difference between the total binding and the nonspecific binding determined in the presence of an excess of unlabelled 5-HT. The results are expressed as a percent of control specific binding obtained in the presence of compound. The IC50 values (concentration causing a half-maximal inhibition of control specific binding) and Hill coefficients (nH) were determined by non-linear regression analysis of the competition curves using Hill equation curve fitting.
The inhibition constants (Ki) were calculated from the Cheng Prusoff equation (Ki=IC50/(1+(L/KD)), where L=concentration of radioligand in the assay, and KD=affinity of the radioligand for the receptor).

[1] = target: T2, human dopamine D3 receptors (Homo sapiens, UniProt P35462); assay: Dopamine D3 receptor binding ([125I]-iodosulpride); conditions: for Ki: membranes from HEK-293 cells, 0.1 nM [125I]-iodosulpride; for Ki(D2)/Ki(D3): ratio of receptor binding constants, D2L versus D3
T2 construct: expressed in transfected cells
T2 sequence (P35462 whole entry): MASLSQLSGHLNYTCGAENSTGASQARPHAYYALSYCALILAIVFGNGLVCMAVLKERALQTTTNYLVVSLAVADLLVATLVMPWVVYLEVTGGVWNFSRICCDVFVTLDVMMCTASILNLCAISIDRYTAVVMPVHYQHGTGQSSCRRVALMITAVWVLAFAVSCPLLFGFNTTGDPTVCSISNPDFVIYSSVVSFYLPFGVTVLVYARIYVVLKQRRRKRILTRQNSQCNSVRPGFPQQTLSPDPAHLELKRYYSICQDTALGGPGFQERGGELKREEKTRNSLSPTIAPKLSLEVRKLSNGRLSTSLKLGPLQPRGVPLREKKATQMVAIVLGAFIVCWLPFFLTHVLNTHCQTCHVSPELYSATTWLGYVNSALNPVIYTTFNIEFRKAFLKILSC
Method: as §1
Each assay mixture was run in triplicate.
The incubation buffer contained 50 mM tris, 120 mM NaCl, 5 mM KCl, 2 mM CaCl2, 2 mM MgCl2 and 0.1% bovine serum albumin, 10 μM quinolone and 0.1% ascorbic acid (prepared fresh daily). The buffer was adjusted to pH 7.4 with HCl.
After having been incubated at 25° C. for 60 minutes, the assay mixtures were filtered through a Whatman GF/B glass fiber filter under vacuum using a cell collecting device. The filters were transferred to scintillation viols using a filter transfer system. After 4 ml of Ultima Gold® (Packard) have been added, the samples were shaken for one hour and the radioactivity was then counted in a Beta-Counter (Packard, Tricarb 2000 or 2200CA). The cpm values were converted into dpm using a standard quench series and the program belonging to the instrument.
The inhibition curves were analyzed by means of iterative nonlinear regression analysis using the Statistical Analysis System (SAS) which is similar to the “LIGAND” program described by Munson and Rodbard.

T1 sequence (P50406 whole entry): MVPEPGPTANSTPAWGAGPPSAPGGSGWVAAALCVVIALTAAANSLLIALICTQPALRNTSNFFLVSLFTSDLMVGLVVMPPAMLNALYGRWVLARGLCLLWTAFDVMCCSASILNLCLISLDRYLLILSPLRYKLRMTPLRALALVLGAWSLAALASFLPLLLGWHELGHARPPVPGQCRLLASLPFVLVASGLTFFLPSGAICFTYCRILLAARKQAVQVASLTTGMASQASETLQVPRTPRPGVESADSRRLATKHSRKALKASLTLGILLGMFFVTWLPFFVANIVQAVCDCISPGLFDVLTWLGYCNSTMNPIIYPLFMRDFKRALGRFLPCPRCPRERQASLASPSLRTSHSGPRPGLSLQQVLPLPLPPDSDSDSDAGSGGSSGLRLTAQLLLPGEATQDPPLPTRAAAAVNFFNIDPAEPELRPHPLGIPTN

Ki (human 5-HT6 receptor) [nM]	Ki [1] [nM]	Ki(D2)/Ki(D3) [1]	Structure (SMILES)
1 to 10	10 to 50	+ (between 10 and 50)	CCCN1CC[C@@H](c2ccc(NS(=O)(=O)c3cccc(Cl)c3)cc2)C1 [Example 98, 3-Chloro-N-[4-((S)-1-propyl-pyrrolidin-3-yl)-phenyl]-benzenesulfonamide]
1 to 10	1 to 10	++++ (>150)	CCCN1CC[C@@H](c2ccc(NS(=O)(=O)c3ccc(Cl)s3)cc2)C1 [Example 62, 5-Chloro-thiophene-2-sulfonic acid [4-((S)-1-propyl-pyrrolidin-3-yl)-phenyl]-amide]
1 to 10	10 to 50	++ (between 50 and 100)	CCCN1CC[C@@H](c2ccc(NS(=O)(=O)c3cccc(F)c3)cc2)C1.O=C(O)C(F)(F)F [Example 97, 3-Fluoro-N-[4-((S)-1-propyl-pyrrolidin-3-yl)-phenyl]-benzenesulfonamide trifluoroacetate]
1 to 10	10 to 50	+++ (between 100 and 150)	C=CCN1CC[C@@H](c2ccc(NS(=O)(=O)c3cccc(C(F)(F)F)c3)cc2)C1 [Example 100, N-[4-((S)-1-Allyl-pyrrolidin-3-yl)-phenyl]-3-trifluoromethyl-benzenesulfonamide]
